Measurements: PubChem BioAssay (NCI)
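Results reflect a 48-hour exposure of cells in 96-well plates to compound at five concentrations. TGI denotes the concentration required for complete inhibition of growth.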

What was measured:
Experiment in all cases: NCI-60 cell line screen, 48 h
786-0 renal = system: 786-0 renal
A549 NSCLC = system: A549 NSCLC
BT-549 breast = system: BT-549 breast
CAKI-1 renal = system: CAKI-1 renal
CCRF-CEM leukemia = system: CCRF-CEM leukemia
COLO 205 colon = system: COLO 205 colon
DU-145 prostate = system: DU-145 prostate
EKVX NSCLC = system: EKVX NSCLC
HCC-2998 colon = system: HCC-2998 colon
HCT-116 colon = system: HCT-116 colon
HCT-15 colon = system: HCT-15 colon
HOP-62 NSCLC = system: HOP-62 NSCLC
HOP-92 NSCLC = system: HOP-92 NSCLC
HS 578T breast = system: HS 578T breast
HT29 colon = system: HT29 colon
IGROV1 ovarian = system: IGROV1 ovarian
K-562 leukemia = system: K-562 leukemia
KM12 colon = system: KM12 colon
LOX IMVI melanoma = system: LOX IMVI melanoma
M14 melanoma = system: M14 melanoma
MALME-3M melanoma = system: MALME-3M melanoma
MCF7 breast = system: MCF7 breast
MDA-MB-231 breast = system: MDA-MB-231 breast
MDA-MB-435 = system: MDA-MB-435
MDA-N = system: MDA-N
MOLT-4 leukemia = system: MOLT-4 leukemia
NCI-H226 lung = system: NCI-H226 lung
NCI-H23 lung = system: NCI-H23 lung
NCI-H460 lung = system: NCI-H460 lung
NCI/ADR-RES ovarian = system: NCI/ADR-RES ovarian
OVCAR-3 ovarian = system: OVCAR-3 ovarian
OVCAR-4 ovarian = system: OVCAR-4 ovarian
OVCAR-5 ovarian = system: OVCAR-5 ovarian
OVCAR-8 ovarian = system: OVCAR-8 ovarian
PC-3 prostate = system: PC-3 prostate
RPMI-8226 leukemia = system: RPMI-8226 leukemia
RXF 393 renal = system: RXF 393 renal
SF-268 CNS = system: SF-268 CNS
SF-295 CNS = system: SF-295 CNS
SF-539 CNS = system: SF-539 CNS
SK-MEL-2 melanoma = system: SK-MEL-2 melanoma
SK-MEL-5 melanoma = system: SK-MEL-5 melanoma
SK-OV-3 ovarian = system: SK-OV-3 ovarian
SN12C renal = system: SN12C renal
SNB-19 CNS = system: SNB-19 CNS
SNB-75 CNS = system: SNB-75 CNS
SW-620 colon = system: SW-620 colon
T-47D breast = system: T-47D breast
U251 CNS = system: U251 CNS
UACC-257 melanoma = system: UACC-257 melanoma
UACC-62 melanoma = system: UACC-62 melanoma
UO-31 renal = system: UO-31 renal
A498 renal = system: A498 renal
ACHN renal = system: ACHN renal
HL-60(TB) leukemia = system: HL-60(TB) leukemia
NCI-H522 lung = system: NCI-H522 lung
SK-MEL-28 melanoma = system: SK-MEL-28 melanoma
TK-10 renal = system: TK-10 renal

Measured: TGI

O=C1C[C@@H](c2ccccc2)O[C@@H](c2ccccc2)C1
> 100 µM: 786-0 renal | A549 NSCLC | BT-549 breast | CAKI-1 renal | CCRF-CEM leukemia | COLO 205 colon | DU-145 prostate | EKVX NSCLC | HCC-2998 colon | HCT-116 colon | HCT-15 colon | HOP-62 NSCLC | HOP-92 NSCLC | HS 578T breast | HT29 colon | IGROV1 ovarian | K-562 leukemia | KM12 colon | LOX IMVI melanoma | M14 melanoma | MALME-3M melanoma | MCF7 breast | MDA-MB-231 breast | MDA-MB-435 | MDA-N | MOLT-4 leukemia | NCI-H226 lung | NCI-H23 lung | NCI-H460 lung | NCI/ADR-RES ovarian | OVCAR-3 ovarian | OVCAR-4 ovarian | OVCAR-5 ovarian | OVCAR-8 ovarian | PC-3 prostate | RPMI-8226 leukemia | RXF 393 renal | SF-268 CNS | SF-295 CNS | SF-539 CNS | SK-MEL-2 melanoma | SK-MEL-5 melanoma | SK-OV-3 ovarian | SN12C renal | SNB-19 CNS | SNB-75 CNS | SW-620 colon | T-47D breast | U251 CNS | UACC-257 melanoma | UACC-62 melanoma | UO-31 renal

CCOP(=O)(OCC)C(C)(CC)NC (stereo not drawn)
77.1 µM: CCRF-CEM leukemia
> 100 µM: 786-0 renal | A498 renal | A549 NSCLC | ACHN renal | BT-549 breast | CAKI-1 renal | COLO 205 colon | DU-145 prostate | EKVX NSCLC | HCC-2998 colon | HCT-116 colon | HCT-15 colon | HL-60(TB) leukemia | HOP-62 NSCLC | HOP-92 NSCLC | HS 578T breast | HT29 colon | IGROV1 ovarian | K-562 leukemia | KM12 colon | LOX IMVI melanoma | M14 melanoma | MALME-3M melanoma | MCF7 breast | MDA-MB-231 breast | MDA-MB-435 | MDA-N | MOLT-4 leukemia | NCI-H226 lung | NCI-H23 lung | NCI-H460 lung | NCI-H522 lung | NCI/ADR-RES ovarian | OVCAR-3 ovarian | OVCAR-4 ovarian | OVCAR-5 ovarian | OVCAR-8 ovarian | RXF 393 renal | SF-268 CNS | SF-295 CNS | SF-539 CNS | SK-MEL-2 melanoma | SK-MEL-28 melanoma | SK-MEL-5 melanoma | SK-OV-3 ovarian | SN12C renal | SNB-19 CNS | SNB-75 CNS | SW-620 colon | T-47D breast | TK-10 renal | U251 CNS | UACC-257 melanoma | UACC-62 melanoma | UO-31 renal
